Article PMC6133161, “Thiazoles with cyclopropyl fragment as antifungal, anticonvulsant, and anti-Toxoplasma gondii agents: synthesis, toxicity evaluation, and molecular docking study” (Medicinal Chemistry Research, 2018)
In brackets after ≈: the same amount, converted by molar mass.

System: Toxoplasma gondii RH strain
Assay: [3H]-uracil incorporation assay in VERO host cells

SMILES: Nc1ccc(S(=O)(=O)Nc2ncccn2)cc1 [Sulfadiazine, reference compound]
- Proliferation of Tg ± SD (1 µg/ml): 104.59 ±4.12%
- Proliferation of Tg ± SD (5 µg/ml): 96.71 ±3.85%
- Proliferation of Tg ± SD (25 µg/ml): 78.58 ±4.67%
- Proliferation of Tg ± SD (50 µg/ml): 67.99 ±7.73%
- Proliferation of Tg ± SD (125 µg/ml): 65.58 ±4.80%
- Proliferation of Tg ± SD (250 µg/ml): 61.79 ±3.13%
- Proliferation of Tg ± SD (500 µg/ml): 56.68 ±3.64%
- Proliferation of Tg ± SD (1250 µg/ml): 45.17 ±1.03%
- Proliferation of Tg ± SD (2500 µg/ml): 45.36 ±0.58%
- IC50 (Toxoplasma gondii, Vero, read-out: IC50 anti-Tg): 936 µg/mL (≈ 3.74 mM)
